In ChEMBL document CHEMBL1157598, “Direct determination of the insulin-insulin receptor interface using transferred cross-saturation experiments” (J Med Chem, 2010):

Assays:
[1] = biological target: Insulin receptor (Homo sapiens) (UniProt P06213); assay: Displacement of [125I]insulin from insulin receptor chimera fused with Fc-region of IgG at 100 uM by scintillation proximity assay
[2] = biological target: Insulin receptor (Homo sapiens) (UniProt P06213); assay: Displacement of [125I]insulin from insulin receptor chimera fused with Fc-region of IgG at 300 uM by scintillation proximity assay

Insulin receptor (Homo sapiens), sequence (P06213 28-758 limits assumed): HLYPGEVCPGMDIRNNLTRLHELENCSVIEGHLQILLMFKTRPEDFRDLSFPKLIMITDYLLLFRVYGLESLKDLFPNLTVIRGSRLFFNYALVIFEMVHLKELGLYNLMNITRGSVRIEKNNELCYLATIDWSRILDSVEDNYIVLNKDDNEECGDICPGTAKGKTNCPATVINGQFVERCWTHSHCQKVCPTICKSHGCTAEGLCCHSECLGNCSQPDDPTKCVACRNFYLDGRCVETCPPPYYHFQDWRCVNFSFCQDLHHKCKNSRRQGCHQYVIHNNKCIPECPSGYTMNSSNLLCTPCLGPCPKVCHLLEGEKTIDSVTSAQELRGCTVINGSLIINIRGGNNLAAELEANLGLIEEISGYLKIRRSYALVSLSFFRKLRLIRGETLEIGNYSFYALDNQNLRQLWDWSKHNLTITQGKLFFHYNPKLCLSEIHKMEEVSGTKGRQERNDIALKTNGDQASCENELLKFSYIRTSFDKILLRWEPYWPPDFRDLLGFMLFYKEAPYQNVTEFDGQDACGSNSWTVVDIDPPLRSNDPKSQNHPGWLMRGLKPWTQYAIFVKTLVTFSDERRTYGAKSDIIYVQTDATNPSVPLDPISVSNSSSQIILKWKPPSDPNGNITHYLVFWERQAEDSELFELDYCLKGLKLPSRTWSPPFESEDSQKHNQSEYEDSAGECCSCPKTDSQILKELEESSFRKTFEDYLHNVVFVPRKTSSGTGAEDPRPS
Insulin receptor (Homo sapiens), sequence (P06213 763-1382 limits assumed): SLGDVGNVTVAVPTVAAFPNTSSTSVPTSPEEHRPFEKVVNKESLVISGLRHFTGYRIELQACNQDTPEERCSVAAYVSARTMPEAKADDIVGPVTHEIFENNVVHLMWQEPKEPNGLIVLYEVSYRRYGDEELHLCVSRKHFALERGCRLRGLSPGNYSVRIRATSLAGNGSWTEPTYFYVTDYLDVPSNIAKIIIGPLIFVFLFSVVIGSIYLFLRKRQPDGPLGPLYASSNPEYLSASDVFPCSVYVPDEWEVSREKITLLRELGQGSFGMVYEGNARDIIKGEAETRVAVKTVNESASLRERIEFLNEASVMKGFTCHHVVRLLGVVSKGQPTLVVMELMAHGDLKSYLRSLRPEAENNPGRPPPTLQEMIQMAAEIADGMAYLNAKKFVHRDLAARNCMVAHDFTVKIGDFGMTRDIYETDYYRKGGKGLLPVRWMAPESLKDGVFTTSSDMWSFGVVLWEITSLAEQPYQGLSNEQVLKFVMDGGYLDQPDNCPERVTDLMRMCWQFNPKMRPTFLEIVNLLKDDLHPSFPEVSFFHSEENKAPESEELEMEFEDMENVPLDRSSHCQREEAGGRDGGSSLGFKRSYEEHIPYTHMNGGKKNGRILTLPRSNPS

O=C(CSc1nnc(Nc2ccccc2F)s1)c1ccc(OC(F)F)cc1
Activity [1]: 69%
Activity [2]: 49%
